Source: patent US20100029652A1, “Combination Therapy For Treating Hepatitis C Infections” (ACHILLION PHARMACEUTICALS, INC., priority 2007, published 2010)

Tests used:
[1] = test system: HCV replicon in Huh-9-13 cells; test: Long term combination study: replicon curing assay, colony formation after G418 selection; assay type: cell-based, hepatitis C virus; conditions: approximately 5×EC50
Protocol: In other repetitions of this experiment, treatment time varied from 7 to 10 days. Cells were passaged once every 3 days into new plates at the same density (10^5 cells/plate) and with fresh compounds. No G418 was present during the 9 day treatment. On day 10, the cells were passaged again to new plates at a density of 10^5 cells/plate, respectively, and were treated only with G418 for approximately 3 more weeks. […] During the 2˜3 weeks, the old media were replaced with fresh media twice a week. The colonies were fixed with 10% formaldehyde and stained with 2% crystal violet in 20% ethanol.
In this assay, the number of the cells in which the replicons still remained after the 9-day treatment was quantified based on the number of the colonies formed after G418 selection.

[2] = test system: HCV replicon (subtype 1b, Con-1) in Huh-luc/neo cells; test: Short term combination study: HCV replicon luciferase assay in Huh-luc/neo cells, 3-days treatment; assay type: cell-based, hepatitis C virus; conditions: for CI (SD) at Replicon inhibition of 50% / CI (SD) at Replicon inhibition of 75% / CI (SD) at Replicon inhibition of 90%: combined with ACH-806, Chou and Talalay; for CI (SD) at Replicon inhibition of 50% / CI (SD) at Replicon inhibition of 75% / CI (SD) at Replicon inhibition of 90% / Overall combinatory antiviral activity / Volume (SD) Antagonism / Volume (SD) Synergy: 3-days treatment; for Overall combinatory antiviral activity / Volume (SD) Antagonism / Volume (SD) Synergy: drug combined with ACH-806; for Volume (SD) Antagonism / Volume (SD) Synergy: Prichard and Shipman model; for combination effect on antiviral activity: in combination with ACH-806, Huh-luc/neo cells treated for 3 days
Protocol: Huh-luc/neo cells were seeded in 96-well plates at a density of 7000 cells/per well. […] Dose-response curves for the individual compounds and their combinations were all run in quadruplicate.
The experimental data were analyzed using CalcuSyn (Biosoft, Ferguson, Mo.), a computer program based on the method of Chou and Talalay (Chou, T. C. and P. Talalay, Quantitative analysis of dose-effect relationships: the combined effects of multiple drugs or enzyme inhibitors (1984) Adv. Enzyme Regul. 22: 27-55). In this model, the dose-effect curves for each drug or drug combination are converted to median-effect plots with the program. The effect of combination is then compared to that of a single agent. A combination index (CI) value for each experimental combination is calculated on the basis of the following equation:
CI=[(D)1/(Dx)1]+[(D)2/(Dx)2]+[(D)1(D)2/(Dx)1(Dx)2],
By convention a CI of <0.9 is considered synergistic, a CI of ≧0.9 or ≦1.1 is considered additive, and a CI of >1.1 is deemed antagonistic.
The extent of synergy or antagonism was also assessed in a three-dimensional analytical method developed by Prichard and Shipman (Prichard, M. Shipman, K., A three-dimensional model to analyze drug-drug interactions, (1990) Antiviral Res. 14: 181-206). In this model, the theoretical additive effect is calculated from the dose-response curves of individual compounds by the equation Z=X+Y(1−X), where X and Y represent the inhibition produced by drug 1 alone and drug 2 alone, and respectively Z represents the effect produced by the combination of drug 1 and drug 2. The theoretical additive surface is subtracted from the actual experimental surface, resulting in a surface that would appear as a horizontal plane at 0% inhibition if the combination were merely additive. Any peak above this plane would indicate synergy, whereas any depression below it would indicate antagonism. The 95% confidence intervals for the experimental dose-response surface are used to evaluate the data statistically. The volume of the peak or depression is calculated to quantify the overall synergy or antagonism produced. Based on Prichard et al., volumes of synergy greater than 50 μM^2% may be considered significant as may volumes of antagonism of less than −50 μM^2%, wherein the units of the X and Y axis are both μM and the unit of the Z axis is the percentage of inhibition. Results

[3] = single agent by itself, 9-day treatment
[4] = in combination with ACH-806, 9-day treatment

SMILES: CCCCCOc1ccc(NC(=S)NC(=O)c2cccnc2)cc1C(F)(F)F [ACH-806]
- log reduction of replicon-containing cells [1, 3]: 1 log
- replicon-containing cells cured [1, 3]: about 90%

SMILES: CCC[C@H](NC(=O)[C@@H]1[C@H]2CCC[C@H]2CN1C(=O)[C@@H](NC(=O)[C@@H](NC(=O)c1cnccn1)C1CCCCC1)C(C)(C)C)C(=O)C(=O)NC1CC1 [VX-950, telaprevir]
- CI (SD) at Replicon inhibition of 50% ([2]; molar ratio 1:10): 0.86 (0.09)
- CI (SD) at Replicon inhibition of 75% ([2]; molar ratio 1:10): 0.82 (0.11)
- CI (SD) at Replicon inhibition of 90% ([2]; molar ratio 1:10): 0.83 (0.13)
- CI (SD) at Replicon inhibition of 50% ([2]; molar ratio 1:20): 0.79 (0.06)
- CI (SD) at Replicon inhibition of 75% ([2]; molar ratio 1:20): 0.61 (0.12)
- CI (SD) at Replicon inhibition of 90% ([2]; molar ratio 1:20): 0.50 (0.15)
- Overall combinatory antiviral activity [2]: Synergy
- Volume (SD) Antagonism [2]: 8 (3) μM^2%
- Volume (SD) Synergy [2]: 119 (4) μM^2%
- combination effect on antiviral activity [2]: synergistic antiviral activity

SMILES: CC1(O)C(O)C(CO)OC1n1ccc(N)nc1=O (centres unmarked) [NM-107]
- CI (SD) at Replicon inhibition of 50% ([2]; molar ratio 1:16): 0.69 (0.02)
- CI (SD) at Replicon inhibition of 75% ([2]; molar ratio 1:16): 0.72 (0.06)
- CI (SD) at Replicon inhibition of 90% ([2]; molar ratio 1:16): 0.79 (0.12)
- CI (SD) at Replicon inhibition of 50% ([2]; molar ratio 1:32): 0.67 (0.07)
- CI (SD) at Replicon inhibition of 75% ([2]; molar ratio 1:32): 0.71 (0.05)
- CI (SD) at Replicon inhibition of 90% ([2]; molar ratio 1:32): 0.83 (0.25)
- Overall combinatory antiviral activity [2]: Synergy
- Volume (SD) Antagonism [2]: 2 (2) μM^2%
- Volume (SD) Synergy [2]: 116 (77) μM^2%
- combination effect on antiviral activity [2]: synergistic antiviral activity
- log reduction of replicon-containing cells [1, 4]: 4 log
- replicon-containing cells cured [1, 4]: ~99.99%
- log reduction of replicon-containing cells [1, 3]: 1 log
- replicon-containing cells cured [1, 3]: about 90%
